Experimental data as given in patent publication US6387881B1, “Inhibitors and substrates of thrombin” (priority 1992, dated 2002).
Values joined by “and” are separate entries in the source; they are usually repeats but may differ in a detail not shown here. Identical values can stand only once. Like-named read-outs stand apart in the source and are kept apart here.

What was measured:
[1] = IC50 with and without incubation (enzyme not given); type: biochemical
human α-thrombin = human α-thrombin (Homo sapiens, UniProt P00734); assay: biochemical; type: biochemical
Protocol: The inhibition of human α-thrombin was determined by the inhibition of the enzyme catalyzed hydrolysis of three different concentrations of the chromogenic substrate S-2238.
200 μl of sample or buffer and 50 μl of S-2238 were incubated at 37° C. for 1 min and 50 μl of human α-thrombin (0.25 NIHu/ml) was added. The initial rate of inhibited and uninhibited reactions were recorded at 405 nm. The increase in optical density was plotted according to the method of Lineweaver and Burke. The Km and apparent Km were determined and Ki was calculated using the relationship: [formula]

plasma samples = assay: Ex-vivo APTT; type: in vivo, New Zealand white rabbits; design: unit not given here; details: 1 mg/kg i.v. bolus, rabbit
Protocol: A volume of 150 μl of citrated (3.2%) normal human plasma was incubated at 37° C. with sample (20 μl) or buffer (20 μl, control) for 1 min. To the solution was added reconstituted “AUTOMATED APTT” (available from Organon Teknika, 0.1 ml). Each solution was activated at 37° C. for 5 min.
After activation, calcium chloride (0.1 ml, 0.025M, prewarmed at 37° C.) was added and clot detection was timed using a “semiautomated coagulometer” (Nach, Schnicter und Gross).
(§1) Data was obtained as for in-vitro tests, but using plasma samples obtained at 0, 1, 10, 30 and 60 minutes after dosing of 1 mg/kg, i.v. bolus injection in a marginal ear vein in New Zealand white rabbits, which were anaesthetized from a canula in the carotid artery. [drawing 18]

[2] = system: bovine thrombin in plasma samples; assay: Ex-vivo TT; type: in vivo, New Zealand white rabbits; design: key: thrombin (coagulation) time in seconds; details: 1 mg/kg i.v. bolus, rabbit
Protocol: A volume of 150 μl of citrated normal human plasma and 20 μl of buffer or sample were warmed at 37° C. for 1 min. Coagulation was started by adding 150 ul of freshly prepared bovine thrombin (5 NIHu/ml saline) and the coagulation time was recorded on a coagulometer.
A phosphate buffer, pH 7.8, containing 0.1% bovine serum albumine and 0.02% sodium azide was used. The samples were dissolved in DMSO and diluted with the buffer. When no inhibitor was used DMSO was added to the buffer to the same concentration as that used in the samples. The inhibitor concentrations were plotted against the thrombin times in a semilogarithmic graph from which the inhibitor concentration that caused a doubling (40 sec) of the thrombin time was determined.
as §1

[3] = Peripheral blood pressure after intravenous dose; type: in vivo, New Zealand white rabbits; details: 1 mg/kg i.v. dose
Text: […] R. May, C. M. Hero, K. D. Butler, C. P. Page, JOURNAL OF PHARMACOLOGICAL METHODS, 24, pp 1-35, 1990. Peripheral blood pressure was monitored by a pressure sensor in the carotid artery.

[4] = system: 111indium-labelled platelets; assay: Deposition of 111indium-labelled platelets after intravenous dose; type: in vivo, New Zealand white rabbits; details: 1 mg/kg i.v. dose
Text: M. Hero, K. D. Butler, C. […] Peripheral blood pressure was monitored by a pressure sensor in the carotid artery.

Urokinase = Urokinase (Homo sapiens, UniProt P00749); assay: IC50 against urokinase; type: biochemical
Plasmin = Plasmin (Homo sapiens, UniProt P00747); assay: IC50 against plasmin; type: biochemical
Kalhikrein = assay: IC50 against kallikrein; type: biochemical
Xa = target: T1, Xa (Homo sapiens, UniProt P00742); assay: IC50 against Xa; type: biochemical
T1 construct: Plasmin; Xa; Urokinase

[5] = no incubation, read-out: IC50 No Incubations
[6] = with incubation, read-out: IC50 Inc.
[7] = human α-thrombin, S-2238, 37° C., read-out: Ki
[8] = single value given, incubation not given, read-out: Urokinase no inc/inc
[9] = single value given, incubation not given, read-out: Plasmin no inc/inc
[10] = single value given, incubation not given, read-out: Kalhikrein no inc/inc
[11] = single value given, incubation not given, read-out: Xa no inc/inc

Plasmin, sequence (P00747 97-580 limits assumed, species assumed): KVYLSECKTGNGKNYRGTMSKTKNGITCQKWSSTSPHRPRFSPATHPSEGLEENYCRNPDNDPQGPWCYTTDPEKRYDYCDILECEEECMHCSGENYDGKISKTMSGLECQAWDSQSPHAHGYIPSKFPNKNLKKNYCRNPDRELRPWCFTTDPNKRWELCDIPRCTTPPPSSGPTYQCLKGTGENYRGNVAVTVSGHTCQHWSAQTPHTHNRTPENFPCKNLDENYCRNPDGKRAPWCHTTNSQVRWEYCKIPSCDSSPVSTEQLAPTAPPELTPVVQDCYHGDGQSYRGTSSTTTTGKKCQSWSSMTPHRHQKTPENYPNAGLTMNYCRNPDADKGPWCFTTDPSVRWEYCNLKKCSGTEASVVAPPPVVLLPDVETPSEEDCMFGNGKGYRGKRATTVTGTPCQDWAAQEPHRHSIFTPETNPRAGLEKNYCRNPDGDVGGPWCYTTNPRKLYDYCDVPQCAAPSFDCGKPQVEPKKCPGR
Plasmin, sequence (P00747 581-810 limits assumed, species assumed): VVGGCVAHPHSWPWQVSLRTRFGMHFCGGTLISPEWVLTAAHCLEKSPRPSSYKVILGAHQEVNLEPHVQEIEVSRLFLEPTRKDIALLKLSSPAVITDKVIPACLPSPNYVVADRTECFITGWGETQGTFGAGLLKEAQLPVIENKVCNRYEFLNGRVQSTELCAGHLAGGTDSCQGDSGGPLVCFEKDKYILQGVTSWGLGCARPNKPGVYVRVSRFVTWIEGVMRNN
T1 sequence (P00742 41-179 limits assumed): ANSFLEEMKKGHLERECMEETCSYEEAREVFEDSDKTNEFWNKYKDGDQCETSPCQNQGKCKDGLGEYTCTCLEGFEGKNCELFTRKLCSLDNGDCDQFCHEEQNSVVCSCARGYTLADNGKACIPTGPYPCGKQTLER
T1 sequence (P00742 235-488 limits assumed): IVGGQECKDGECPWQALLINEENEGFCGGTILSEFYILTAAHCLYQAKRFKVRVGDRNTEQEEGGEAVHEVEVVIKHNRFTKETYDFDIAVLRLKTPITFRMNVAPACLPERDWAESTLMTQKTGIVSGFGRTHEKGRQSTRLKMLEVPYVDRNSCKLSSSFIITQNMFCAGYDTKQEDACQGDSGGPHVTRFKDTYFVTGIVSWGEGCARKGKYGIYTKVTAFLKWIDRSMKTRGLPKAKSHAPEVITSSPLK

## NC(C(=O)N1CCCC1C(=O)NC(c1ccccc1)P(=O)(O)O)C(c1ccccc1)c1ccccc1 [Compound 16, D,L-Dpa-Pro-Pgl^P(OH)2]
[1]; [5]
  IC50: 5160 nM
[1]; [6]
  IC50: 81.7 nM
Human α-thrombin; [7]
  Ki: 223 nM

## CCCCCC(NC(=O)[C@@H]1CCCN1C(=O)[C@@H](Cc1ccccc1)NC(=O)OCc1ccccc1)B1OC(C)(C)C(C)(C)O1 (stereo partly drawn) [Compound 11, Z-D-Phe-Pro-BoroPgl-OPinac]
Plasma samples; time 0 min
  EX-VIVO A.P.T.T.: 46.5 and 26.4
Plasma samples; time 60 min
  EX-VIVO A.P.T.T.: 53.0 and 38.4
[2]; time 0 min
  EX-VIVO T.T.: 30 and 24.5 and 26
[2]; time 1 min
  EX-VIVO T.T.: >300 and >200
[2]; time 10 min
  EX-VIVO T.T.: >300 and >200

## CCCCCC(NC(=O)[C@@H]1CCCN1C(=O)[C@H](N)C(c1ccccc1)c1ccccc1)P(=O)(O)O (stereo partly drawn) [Compound 18, D-Dpa-Pro-Pgl^P(OH)2]
[1]; [5]
  IC50: 148000 nM
[1]; [6]
  IC50: 751 nM
Human α-thrombin; [7]
  Ki: 15100 nM

## O=C(NC(C(=O)N1CCCC1C(=O)NC(c1ccccc1)P(=O)(Oc1ccccc1)Oc1ccccc1)C(c1ccccc1)c1ccccc1)OCc1ccccc1 [Compound 17, Z-D-Dpa-Pro-Pgl^P(OPh)2]
Human α-thrombin; [7]
  Ki: 8460 nM

## CCCCCC(NC(=O)[C@@H]1CCCN1C(=O)[C@H](N)C(c1ccccc1)c1ccccc1)P(=O)(Oc1ccccc1)Oc1ccccc1 (stereo partly drawn) [Compound 23, D-Dpa-Pro-Pgl^P(OPh)2]
[1]; [5]
  IC50: 187 nM
[1]; [6]
  IC50: 0.938 nM
Human α-thrombin; [7]
  Ki: 480 nM

## Z-D-Phe-Pro-BoroMbg-OPin [Compound 59]
[3]
  BLOOD PRESSURE Δ% of NORM: NONE
Plasma samples; time 0 min
  EX-VIVO A.P.T.T.: 42 and 59.5 and 43.9 and 58
Plasma samples; time 1 min
  EX-VIVO A.P.T.T.: 111.4 and 111 and 102.9 and 126
Plasma samples; time 10 min
  EX-VIVO A.P.T.T.: 48.9 and 53 and 60.5 and 67
Plasma samples; time 30 min
  EX-VIVO A.P.T.T.: 34.9 and 49 and 59 and 53.9
Plasma samples; time 60 min
  EX-VIVO A.P.T.T.: 40.4 and 48.4 and 65.5 and 62
[2]; time 0 min
  EX-VIVO T.T.: 28.9 and 22.5 and 22.4 and 23.5
[2]; time 1 min
  EX-VIVO T.T.: 111 and 106 and 171.5 and 168.5
[2]; time 10 min
  EX-VIVO T.T.: 35.9 and 34 and 37.9 and 38.4
[2]; time 30 min
  EX-VIVO T.T.: 29 and 30 and 32 and 31
[2]; time 60 min
  EX-VIVO T.T.: 28.4 and 28.5 and 27.9 and 28
[4]
  PLATELET ACCUMULATION (% OF NORMAL) LEG: NONE
  PLATELET ACCUMULATION (% OF NORMAL) LUNG: NONE

## Bzl-Pros-Pro-BoroIrg-Opin [Compound 44]
Urokinase; [8]
  IC50: 121 nM
[1]; [5]
  IC50: 1300 nM
Plasmin; [9]
  IC50: 153 nM
Kalhikrein; [10]
  IC50: 1080 nM
Xa; [11]
  IC50: 512 nM

## COCCCC(NC(=O)C1CCCN1C(=O)C(Cc1ccccc1)NC(=O)OCc1ccccc1)B1OC2CC3CC(C3(C)C)C2(C)O1 [Compound 50, Z-D-Phe-Pro-BoroMpg-OPin]
Urokinase; [8]
  IC50: 3630 nM
[1]; [5]
  IC50: 0.7 nM
Plasmin; [9]
  IC50: 3230 nM
Kalhikrein; [10]
  IC50: 7260 nM
Xa; [11]
  IC50: 1720 nM

## CCCCCC(NC(=O)C1CCCN1C(=O)C(Cc1ccccc1)NC(=O)OCc1ccccc1)P(=O)(Oc1ccccc1)Oc1ccccc1 [Compound 19, Z-D-Phe-Pro-Pgl^P(OPh)2]
Human α-thrombin
  Ki: > 31000 nM

## CCCCCC(NC(=O)C1CCCN1C(=O)C(N)Cc1ccccc1)P(=O)(Oc1ccccc1)Oc1ccccc1 [Compound 20, D-Phe-Pro-Pgl^P(OPh)2]
[3]
  BLOOD PRESSURE Δ% of NORM: NONE
Human α-thrombin
  Ki: 109 nM
[4]
  PLATELET ACCUMULATION (% OF NORMAL) LEG: NONE
  PLATELET ACCUMULATION (% OF NORMAL) LUNG: NONE

## CC(C)(C)OC(=O)NC(C(=O)N1CCCC1C(=O)NC(c1ccccc1)P(=O)(O)O)C(c1ccccc1)c1ccccc1 [Compound 15, Boc-D,L-Dpa-Pro-Pgl^P(OH)2]
[1]; [5]
  IC50: 5280 nM
[1]; [6]
  IC50: 83.6 nM
Human α-thrombin; [7]
  Ki: 59000 nM

## COCCCC(NC(=O)[C@@H]1CCCN1C(=O)[C@H](N)Cc1ccccc1)P(=O)(Oc1ccccc1)Oc1ccccc1 (stereo partly drawn) [Compound 40, H-D-Phe-Pro-Mpg^P(OPh)2]
Urokinase; no incubation (first value of cell), read-out: Urokinase no inc
  IC50: > 20900 nM
Urokinase; with incubation (second value of cell), read-out: Urokinase inc
  IC50: > 20900 nM
[1]; [5]
  IC50: 16600 nM
[1]; [6]
  IC50: 11.8 nM
Human α-thrombin; read-out: Ki
  Ki: 18.8 nM
Plasmin; no incubation (first value of cell), read-out: Plasmin no inc
  IC50: > 20900 nM
Kalhikrein; no incubation (first value of cell), read-out: Kalhikrein no inc
  IC50: > 20900 nM
Kalhikrein; with incubation (second value of cell), read-out: Kalhikrein inc
  IC50: > 20900 nM
Xa; no incubation (first value of cell), read-out: Xa no inc
  IC50: > 20900 nM
Xa; with incubation (second value of cell), read-out: Xa inc
  IC50: > 20900 nM

## CCCCCC(NC(=O)[C@@H]1CCCN1C(=O)[C@H](N)Cc1ccccc1)P(=O)(O)O (stereo partly drawn) [Compound 21, D-Phe-Pro-Pgl^P(OH)2]
[1]; [5]
  IC50: > 137000 nM
[1]; [6]
  IC50: 4350 nM
Human α-thrombin; read-out: Ki
  Ki: > 98000 nM
